# Experimental data: patent publication US5225426A, “Thiazolidine-2,4-dione compound and method of treatment of diabetic complications” (Terumo Kabushiki Kaisha, priority 1990, dated 1993)
# Tests used:
# [1] = in vivo; settings: mouse, oral, ICR type male mice (five-week old)
# Description: The compounds 1, 2 and 3 of this invention were tested for acute toxicity by oral administration thereof to ICR type male mice (five-week old).
# [2] = test system: blood sugar; assay: Blood sugar drop ratio in streptozotocin diabetic rats; type: in vivo, Wistar type male rats; settings: oral, four days, blood 3 hours after administration
# Description: (§1) Groups each of five three-week old Wistar type male rats were used for the test. To the rats, streptozotocin was administered at a concentration of 65 mg/kg via the tail vein. Of these rats, those whose blood sugar values fell in the range of from 250 to 650 mg/dl one week after the administration were designated as diabetic rats. As a control medicine, Compound 4 represented by the formula VII was used. [drawing 9]
# (§2) The five groups, i.e. the group of untreated diabetic rats, the group of rats subjected to administration of control medicine (50 mg/kg×2/day), the group of rats subjected to administration of sample (100 mg/kg/day), and the group of normal rats, were tested. A given medicine was suspended in 5% gum arabic and orally administered continually for four days after the elapse of two weeks following the onset of diabetes. To the group of untreated diabetic rats and the group of normal rats, a 5% gum arabic solution […] was administered in a ratio of 10 ml/kg. After the elapse of three hours following the administration, the blood was extracted from each rat with the aid of heparin via the tail vein (for the determination of blood sugar) and the abdominal aorta.
# The PRC was tested for sorbitol content by the Malon et al's method [Diabetes, 29, 861-864 (1980)]. The determination of the blood sugar value was carried out by the alucose-oxidase method.
# The blood sugar drop ratio and the sorbitol accumulation inhibition ratio were calculated in accordance with Formula 1 and Formula 2.
# Blood sugar drop ratio (%)=(1-[(Average blood sugar value of the group of rats subjected to administration of sample or control medicine-Average blood sugar value of the group of normal rats)/(Average blood sugar value of the group of untreated diabetic rats-Average blood sugar value of the group of normal rats)])×100
# [3] = biological target: T1, aldose reductase (Rattus norvegicus, UniProt P07943); assay: Determination of Aldose Reductase-inhibiting Activity; type: biochemical, Wistar type male rat (crystalline lens); settings: rat lens enzyme; 0.1 mM DL-glyceraldehyde, 0.03 mM NADPH, pH 7.0, 30° C., 30 minutes; read-out: 50% inhibition concentration (IC50)
# T1 construct: From the crystalline lens, aldose reductase was prepared; from tissue; host or cells: crystalline lens of five-week old male Wistar rat
# Description: A five-week old Wistar type male rat was sacrificed under anesthesia and immediately dissected to remove crystalline lens. From the crystalline lens, aldose reductase was prepared by following the Hyman et al's method [J. Biol. Chem., 240, 877-882 (1965)] with necessary modifications. The aldose reductase activity was determined by the Dufrane et al's method [Biochem. Med., 32, 99-105 (1984)]. In 400 μl of a 135 mM sodium-potassium phosphate buffer solution (pH 7.0) prepared in advance so as to contain 100 mM lithium sulfate, 0.03 mM NADPH (reducing type nicotinamide adenine dinucleotide phosphate), and 0.1 mM DL-glyceraldehyde as a substrate, 50 μl of the aforementioned aldose reductase and 50 μl of a sample of a varying concentration (having Compound 1, or Compound 2, or Compound 3 dissolved in ethanol) added thereto were left reacting at 30° C. for 30 minutes. Then, the reaction was stopped by addition of 0.15 ml of 0.5N hydrochloric acid. The NADP (oxide type nicotinamide adenine dinucleotide phosphate) produced by the reaction in the reaction mixture was converted into a fluorescent substance by the addition thereto of 0.5 ml of 6N sodium hydroxide containing 10 mM imidazole. After the elapse of 60 minutes following the conversion, the produced reaction mixture was tested for intensity of fluorescence. The intensity of fluorescence was determined by the use of a fluorescence tester (produced by Corona Denki K.K. and marketed under trademark designation of "MTP-100F Corona Microplate Reader") under the conditions of 360 nm of excitation wavelength and 460 nm of fluorescent wavelength. The intensity of fluorescence determined by repeating the procedure described above, except ethanol was added in the place of the sample was used as a control value. As the aldose reductase inhibiting activity of a sample, the concentration of the sample required for inhibiting 50% of the aldose reductase activity due to a decline of the intensity of fluorescence (i.e. 50% inhibition concentration: IC50 value) was obtained.
# [4] = test system: Sorbitol in Red Blood Cells; assay: Action to Curb Accumulation of Sorbitol in Red Blood Cells (streptozotocin diabetic rats); type: in vivo, Wistar type male rats; settings: control medicine 50 mg/kg×2/day, oral, four days; packed red cells, blood 3 hours after administration
# Description: as §1
# as §2, with “aorta. […]” for “aorta.”
# The blood sugar drop ratio and the sorbitol accumulation inhibition ratio were calculated in accordance with Formula 1 and Formula 2. […]
SMILES,LD50 [1] [mg/kg],Blood sugar drop ratio ([2]; sample 100 mg/kg/day) [%],IC50 [3] [nM],Sorbitol accumulation inhibition ratio [4] [%],Blood sugar drop ratio ([2]; control medicine 50 mg/kg×2/day) [%]
"O=C1NC(=O)C(Cc2ccc(C(=O)C=Cc3ccc(O)c(O)c3)cc2)S1 (centres unmarked) [Compound 1, 5-{4-[3-(3,4-dihydroxyphenyl)-2-propenoyl]benzyl}thiazolidine-2,4-dione]",≥ 1000,46.8,520,–,–
"CC(=Cc1ccccc1)C=C1SC(=S)N(CC(=O)O)C1=O [Compound 4, reference compound]",–,–,–,90.3,7.2
"COc1cc(C=CC(=O)c2cccc(CC3SC(=O)NC3=O)c2)ccc1O (centres unmarked) [Compound 3, 5-{3-[3-(4-hydroxy-3-methoxyphenyl)-2-propenoyl]benzyl}thiazolidine-2,4-dione]",≥ 1000,42.6,1900,–,–
"COc1cc(C=CC(=O)c2ccc(CC3SC(=O)NC3=O)cc2)ccc1O (centres unmarked) [Compound 2, 5-{4-[3-(4-hydroxy-3-methoxyphenyl)-2-propenoyl]benzyl}thiazolidine-2,4-dione]",≥ 1000,60.5,4200,–,–
